Experiment: gradient 5% acetonitrile 3 min, to 50% in 2 min, to 85% in 15 min, held 3 min, 100 µL/min
Details: column: Zorbax Extend-C18 2.1 x 50 mm; eluents: water / acetonitrile, 0.1% formic acid
In short: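 In both positive and negative ionization mode, a quadrupole time-of-flight mass spectrometer coupled to HPLC analyzed pure standards run in mixtures of ~100 molecules. The Zorbax Extend-C18 column (2.1 × 50 mm, 1.8 μm) was operated at 100 μL/min with water and acetonitrile, each containing 0.1% formic acid. The dead volume was 40 μL and the dwell volume 900 μL. Retention time came from adduct peaks that were computationally picked and individually inspected by hand.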

Row | SMILES | RP-LC retention time
1 | CCOc1ccccc1NC(=O)CN1c2ccc(F)cc2-c2ccccc2S1(=O)=O | 1090 s
2 | Cc1cccn2cc(C(=O)NCCC3=CCCCC3)nc12 | 860 s
3 | O=C(NCc1ccc(-c2nc(-c3cccs3)no2)s1)C1CCC1 | 910 s
4 | Cc1cc(N2CCN(S(=O)(=O)c3cccc(F)c3)CC2)nc(NC2CCCCC2)n1 | 797 s
5 | CCOC(=O)Cn1c(=O)c2cnc(-c3ccc(C)cc3)nc2n(C)c1=O | 1060 s
6 | CCc1nc2c(NC(=O)c3ccc(Br)cc3)cccn2n1 | 914 s
7 | COc1ccc(NC(=O)N2CCC3(CC2)NC(=O)c2ccc(Cl)cc2N3C)cc1OC | 734 s
8 | O=C(c1sc2ncccc2c1-n1cccc1)N1CCN(c2ccccc2Cl)CC1 | 1120 s
9 | CC(=O)Nc1ccc(CCc2nc3ccc(C(=O)NC(C)Cc4ccco4)cc3[nH]2)cc1 (centres undefined) | 626 s
10 | CC(CCc1ccccc1)NC(=O)C1CCN(c2cc(Oc3ccccc3)ncn2)CC1 (centres undefined) | 998 s
11 | COc1ccc(NC(=O)N2CCN(c3nc4ccccc4nc3C(F)(F)F)CC2)c(OC)c1 | 1070 s
12 | CCN1CCN(Cc2nc(-c3ccc(N4CCSCC4)nc3)no2)CC1 | 604 s
13 | O=C(NCC(=O)N1CCCc2ccccc21)c1ccccc1 | 777 s
14 | Cc1cc(C)c(CNC(=O)c2nnc(-c3ccc(S(=O)(=O)N(C)C)cc3)o2)c(C)c1 | 1010 s
15 | CCn1c(=O)c2ccn(CC(=O)N3CCN(c4ccc(Cl)cc4)CC3)c2n(CC)c1=O | 787 s
16 | O=C(c1ccccc1Br)N1CCc2nc(-c3ccccc3)ncc2C1 | 963 s
17 | Cc1ccc(C2Cn3cnc(C(=O)N4CCC(C(=O)NCCCc5ccccc5)CC4)c3CO2)cc1 (centres undefined) | 853 s
18 | O=C(NCCc1ccccc1)C1CCN(c2cc(N3CCCCC3)ncn2)CC1 | 685 s
19 | Cn1c(C2CCN(S(=O)(=O)c3ccc(Cl)cc3)C2)nc2cccnc21 (centres undefined) | 760 s
20 | COc1cccc(CNC(=O)c2c(C(F)(F)F)nn(C)c2C)c1 | 722 s
21 | O=S(=O)(c1ccc(Cl)cc1)c1nc(-c2ccco2)oc1NCCCn1ccnc1 | 597 s
22 | COc1ccc(F)cc1S(=O)(=O)N1CCC(n2cnnc2C)CC1 | 650 s

Row | SMILES | RP-LC retention time
23 | O=C(Cn1nc2ccc(C(=O)NCc3ccccc3)cn2c1=O)NCCC1=CCCCC1 | 811 s
24 | CCCC(=O)Nc1ccc(-n2cnc(C(=O)N3CCN(c4ccccc4F)CC3)c2)nc1 | 788 s
25 | Cn1cccc1C(=O)C(=O)Nc1ccc(Cl)c(C(F)(F)F)c1 | 1130 s
26 | COCC(=O)Nc1nc(-c2ccc3c(c2)NC(=O)C(C)O3)c(C)s1 (centres undefined) | 720 s
27 | Cn1nc(-c2nnc(-c3ccc(F)cc3)o2)c2c1CCN(S(=O)(=O)c1cc(F)cc(F)c1)C2 | 922 s
28 | Cc1cc(C)cc(N2C(=O)CN(C3CCCC3)[C@H]3CS(=O)(=O)C[C@H]32)c1 | 790 s
29 | Cc1ccc(CN2CCN(CC(=O)Nc3ccc(C)cc3)C(=O)C2=O)cc1 | 786 s
30 | Cc1cc2c(c(=O)n(-c3ccccc3)c(=O)n2CC(=O)Nc2ccccc2C(F)(F)F)n1C | 904 s
31 | Cc1nsc2ncc(C(=O)N3CCOCC3)c(N3CCC(C(=O)Nc4cccc(Cl)c4)CC3)c12 | 848 s
32 | NC(=O)C1CCN(c2oc(-c3ccco3)nc2S(=O)(=O)c2ccccc2)CC1 | 652 s
33 | Cn1cnc(S(=O)(=O)NCCc2noc(-c3ccncc3)n2)c1 | 596 s
34 | O=C(CC1CCN(C(=O)c2ccc3oc(-c4ccccc4)nc3c2)CC1)N1CCCC1 | 782 s
35 | CCc1ccc(NC(=O)CN2C(=O)NC3(CCCCC3)C2=O)cc1 | 765 s
36 | Cc1ccc(Cl)cc1N1CCN(C(=O)C2CC(=O)c3ccccc32)CC1 (centres undefined) | 922 s
37 | O=C(Nc1ccc2c(c1)OCCO2)N1CCC2(CCCCO2)CC1 | 712 s
38 | Cc1noc([C@@H]2CN(C(=O)c3ccc(Cn4ccnc4)o3)C[C@H]2C(N)=O)n1 | 538 s
39 | CC1CCN(CCNC(=O)c2nc(CCS(=O)(=O)c3ccc(F)cc3)no2)CC1 | 620 s
40 | O=C(Cn1nc(-c2ccccc2)c2cc(Cl)ccc21)NC1CCCC1 | 1130 s
41 | CCn1cc(-c2nc(C(=O)Nc3ccccc3F)cs2)c2cccnc21 | 1130 s
42 | Cc1nc(C(=O)Nc2ccc(C)c(F)c2)c(C)o1 | 946 s
43 | Cn1nnnc1C1CCCN(C(=O)C2CC2)C1 (centres undefined) | 605 s
44 | COCCNC(=O)c1nnc(-c2ccc(S(=O)(=O)N(C)C)cc2)o1 | 687 s

From the METLIN SMRT retention time set (Domingo-Almenara et al. 2019)
